Measured values: ChEMBL document CHEMBL1136825, “Synthesis and biological evaluation of 4-deacetoxy-1,7-dideoxy azetidine paclitaxel analogues” (2003)

What was measured:
Type in all cases: functional, Homo sapiens
A549 = test: Concentration required for 50% inhibition of proliferation of lung cancer cell line, A549 with respect to paclitaxel was tested in vitro after 72 hr of incubation
SK-OV-3 = test: Concentration required for 50% inhibition of proliferation of ovarian cancer cell line, SKOV3 with respect to paclitexal was tested in vitro after 72 hr of incubation
MCF7 = test: Concentration required for 50% inhibition of proliferation of breast cancer cell line, MCF-7 with respect to paclitaxel was tested in vitro after 72 hr of incubation

Row | SMILES | Ratio (A549) | Ratio (SK-OV-3) | Ratio (MCF7)
1 | CC(=O)O[C@H]1[C@@H]2[C@@H]3CN(C(=O)C(F)(F)F)[C@@H]3CC[C@@]2(C)[C@@H](OC(C)=O)[C@H](OC(C)=O)C2=C(C)[C@@H](OC(=O)[C@H](O)[C@@H](NC(=O)c3ccccc3)c3ccccc3)C[C@@H]1C2(C)C | 3.2 | 4.7 | 3.8
2 | COc1ccc(OC2O[C@@H](C(=O)O[C@H]3C[C@H]4[C@@H](OC(C)=O)[C@@H]5[C@@H]6CN[C@@H]6CC[C@@]5(C)[C@@H](OC(C)=O)[C@H](OC(C)=O)C(=C3C)C4(C)C)[C@H](c3ccccc3)N2C(=O)c2ccccc2)cc1 (stereo partly drawn) | 6.8 | 9.3 | 8.6
3 | CC(=O)O[C@H]1[C@@H]2[C@@H]3CN(C(C)=O)[C@@H]3CC[C@@]2(C)[C@@H](OC(C)=O)[C@H](OC(C)=O)C2=C(C)[C@@H](OC(=O)[C@H](O)[C@@H](NC(=O)c3ccccc3)c3ccccc3)C[C@@H]1C2(C)C | 2.9 | 5.8 | 3.6
4 | COc1ccc(OC2O[C@@H](C(=O)O[C@H]3C[C@H]4[C@@H](OC(C)=O)[C@@H]5[C@@H]6CN(C(C)=O)[C@@H]6CC[C@@]5(C)[C@@H](OC(C)=O)[C@H](OC(C)=O)C(=C3C)C4(C)C)[C@H](c3ccccc3)N2C(=O)c2ccccc2)cc1 (stereo partly drawn) | 6.9 | 10.2 | 9.3
5 | CC(=O)O[C@H]1C(=O)[C@@]2(C)[C@H]([C@H](OC(=O)c3ccccc3)[C@]3(O)C[C@H](OC(=O)[C@H](O)[C@@H](NC(=O)c4ccccc4)c4ccccc4)C(C)=C1C3(C)C)[C@]1(OC(C)=O)CO[C@@H]1C[C@@H]2O [PACLITAXEL] | 1 | 1 | 1
6 | CC(=O)O[C@H]1[C@@H]2[C@@H]3CN[C@@H]3CC[C@@]2(C)[C@@H](OC(C)=O)[C@H](OC(C)=O)C2=C(C)[C@@H](OC(=O)[C@H](O)[C@@H](NC(=O)c3ccccc3)c3ccccc3)C[C@@H]1C2(C)C | 4.5 | 4.6 | 4.9
